In assay [1] the target is T1, eledoisin binding, rat membranes (Rattus norvegicus, UniProt P16177).
T1 construct: rat membranes; from tissue; brain cortex inferred from the cited Foster et al. 1988
T1 sequence (P16177 1-452): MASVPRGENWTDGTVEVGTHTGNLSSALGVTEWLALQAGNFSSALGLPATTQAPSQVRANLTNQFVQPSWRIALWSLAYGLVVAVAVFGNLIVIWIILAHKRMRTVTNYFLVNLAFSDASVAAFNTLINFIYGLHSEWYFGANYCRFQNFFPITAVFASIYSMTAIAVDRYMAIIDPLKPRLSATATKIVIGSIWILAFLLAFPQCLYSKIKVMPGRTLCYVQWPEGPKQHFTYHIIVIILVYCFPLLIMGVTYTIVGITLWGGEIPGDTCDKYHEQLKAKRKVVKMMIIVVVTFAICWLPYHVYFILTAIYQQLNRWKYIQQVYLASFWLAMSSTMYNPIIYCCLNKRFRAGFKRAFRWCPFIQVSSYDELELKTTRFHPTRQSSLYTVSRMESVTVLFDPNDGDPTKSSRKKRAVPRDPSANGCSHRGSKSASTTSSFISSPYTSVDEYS
Nature of the assay: Antagonism of binding to eledoisin, rat membranes. To be noted: read-out: Ki, antagonises the binding of eledoisin. An excerpt:
Foster et al., Br. J. Pharmacol., 1988, 94, 602-608.
Eledoisin is a peptide of batrachian origin which is equivalent to neurokinin B.

A further assay relates to substance P binding. In words: Antagonism of binding of substance P (rat cortex membranes or IM9 cells, not stated which). To be noted: preparation (rat cortex membranes or IM9 lymphoblastic cells) not given; read-out: Ki, antagonises the binding of substance P.
Assay [2] deals with T2, neurokinin A binding, rat duodenum membranes (Rattus norvegicus, UniProt P16610).
T2 construct: rat duodenum membranes; from tissue; host or cells: rat duodenum membranes
T2 sequence (P16610 1-390): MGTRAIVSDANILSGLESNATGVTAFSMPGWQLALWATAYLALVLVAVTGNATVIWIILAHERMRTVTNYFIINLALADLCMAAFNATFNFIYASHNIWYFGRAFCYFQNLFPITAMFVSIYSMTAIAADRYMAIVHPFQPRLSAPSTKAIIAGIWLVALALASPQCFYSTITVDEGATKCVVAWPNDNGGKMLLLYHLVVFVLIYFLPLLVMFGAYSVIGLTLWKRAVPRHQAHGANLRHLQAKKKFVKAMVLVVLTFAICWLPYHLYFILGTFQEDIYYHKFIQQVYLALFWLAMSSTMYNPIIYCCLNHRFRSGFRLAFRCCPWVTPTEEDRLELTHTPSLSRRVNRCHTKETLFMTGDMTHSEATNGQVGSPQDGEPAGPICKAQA
In words: Antagonism of binding to NKA (neurokinin A), rat duodenum membranes. To be noted: read-out: Ki, antagonises the binding of neurokinin A.

The Ki is a measure of affinity in units of concentration, obtained from inhibition or displacement.

Counter-ions that a name gives are not always drawn.

In the case of `O=C(NCC(CCN1CCC(Nc2ccccc2)CC1)c1ccc(Cl)c(Cl)c1)c1ccc(F)c2ccccc12` (stereo not drawn) [Compound 9], the Ki in assay [1] worked out at 400 nM.
For `O=C(NCC(CCN1CCC(Sc2ccccn2)CC1)c1ccc(Cl)c(Cl)c1)c1ccc(Cl)cc1Cl` (stereo not drawn) [Compound 4], in the assay with substance P binding, the inhibition constant Ki was determined as 41 nM.
Consider `CC(=O)N(c1ccccc1)C1CCN(CCC(CN(C)C(=O)c2ccccc2)c2ccc(Cl)c(Cl)c2)CC1` (stereo not drawn) [Compound 8, N-[4-(N'-4-Acetylanilino-1-piperidinyl)-2-(3,4-dichlorophenyl)butyl]-N-methylbenzamide hydrochloride], for which, in assay [2], the Ki worked out at 5.5 nM.

Source of the values: US5411971A, “N-alkylenepiperidino compounds, their enantiomers and pharmaceutical compositions” (Elf Sanofi, priority 1991, dated 1995).
